Legend:
Conditions in all cases: 72 h
BT-474 = tested on: BT-474
How it was run: (§1)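 Two sequential readouts followed a 72 h incubation of breast cancer cell lines with compound at 5 concentrations in 10-fold steps over a compound-specific 10,000-fold range: CellTox Green fluorescence (485/520 nm) for cell death, then CellTiter-Glo luminescence, after 10 min at room temperature, for viability. Each plate was normalised to 0.1 % DMSO and a positive kill control. Dose-response curves were fitted for EC50, censored at the top concentration.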

CAL-51 = tested on: CAL-51
How it was run: as §1

MDA-MB-468 = tested on: MDA-MB-468
How it was run: as §1

Structure (SMILES)	EC50, CellTiter-Glo (BT-474) [nM]	EC50, CellTiter-Glo (CAL-51) [nM]	EC50, CellTiter-Glo (MDA-MB-468) [nM]
Cc1ccc(C(=O)Nc2ccc(CN3CCN(C)CC3)c(C(F)(F)F)c2)cc1C#Cc1cnc2cccnn12 [Ponatinib]	244	844	> 1000
O=C(CCCCCCC(=O)Nc1ccc([C@H]2O[C@@H](CSc3nc(-c4ccccc4)c(-c4ccccc4)o3)C[C@@H](c3ccc(CO)cc3)O2)cc1)NO [Tubacin]	3650	4570	1730
CN[C@@H]1C[C@H]2O[C@@](C)([C@@H]1OC)n1c3ccccc3c3c4c(c5c6ccccc6n2c5c31)C(=O)N[C@H]4O [UCN-01]	43.4	77.5	93.2
CCC1=C[C@@H]2CN(C1)Cc1c([nH]c3ccccc13)[C@@](C(=O)OC)(c1cc3c(cc1OC)N(C)[C@H]1[C@@](O)(C(=O)OC)[C@H](OC(C)=O)[C@]4(CC)C=CCN5CC[C@]31[C@@H]54)C2 [Vinorelbine]	76.3	118	26.7
NC(=O)Nc1cc(-c2cccc(F)c2)sc1C(=O)N[C@H]1CCCNC1 [AZD7762]	233	707	596

Source: the supplement of paper PMC4862054
